Patent publication US20200054633A1 (priority 2017, published 2020)
Where two headings read alike, the source gives them in different places.

Settings: OST placebo, N=74
Excerpt: This study followed a randomized, double-blind, placebo-controlled, parallel-group, multicenter design.
Analysis set for safety: Safety Set included all subjects who received at least 1 dose of study drug.

## O=C(O)[C@H]1C2CCC(CC2)[C@@H]1Nc1nc(-c2c[nH]c3ncc(F)cc23)ncc1F [Compound (1), Pimodivir]
300 mg
  Any Serious TEAE: 0
  Any Serious TEAE at least possibly related to study medication: 0
  Any Severe (Grade 3) TEAE: 2 (2.7%)
  Any TEAE: 32
  Any TEAE at least possibly related to study medication: 9
  Any TEAE leading to a temporary stop of study medication: 2
  Any TEAE leading to permanent stop of study medication: 7
  Any TEAE with fatal outcome: 0
  Grade 3 TEAE: Anaemia: 0
  Grade 3 TEAE: Balance disorder: 0
  Grade 3 TEAE: Blood and lymphatic system disorders: 0
  Grade 3 TEAE: Blood creatine phosphokinase increased: 0
  Grade 3 TEAE: Bronchitis: 1 (1.4%)
  Grade 3 TEAE: Constipation: 0
  Grade 3 TEAE: Diarrhoea: 0
  Grade 3 TEAE: Fatigue: 1 (1.4%)
  Grade 3 TEAE: Gastrointestinal disorders: 0
  Grade 3 TEAE: General disorders and administration site conditions: 1 (1.4%)
  Grade 3 TEAE: Hyperkalaemia: 0
  Grade 3 TEAE: Infections and infestations: 1 (1.4%)
  Grade 3 TEAE: Investigations: 0
  Grade 3 TEAE: Lymphopenia: 0
  Grade 3 TEAE: Metabolism and nutrition disorders: 0
  Grade 3 TEAE: Nausea: 0
  Grade 3 TEAE: Nervous system disorders: 1 (1.4%)
  Grade 3 TEAE: Neutropenia: 0
  Grade 3 TEAE: Neutrophil count decreased: 0
  Grade 3 TEAE: Protein urine present: 0
  Grade 3 TEAE: Syncope: 1 (1.4%)
  Grade 3 TEAE: Thrombocytopenia: 0
  Grade 3 TEAE: Vomiting: 0
  TEAE: Abdominal discomfort: 0 n (%)
  TEAE: Abdominal pain: 0 n (%)
  TEAE: Abdominal pain upper: 0 n (%)
  TEAE: Abdominal tenderness: 0 n (%)
  TEAE: Alanine aminotransferase increased: 1 n (%)
  TEAE: All events: 32 n (%)
  TEAE: Anaemia: 0 n (%)
  TEAE: Aphthous stomatitis: 0 n (%)
  TEAE: Aspartate aminotransferase increased: 1 n (%)
  TEAE: Atrioventricular block first degree: 0 n (%)
  TEAE: Back pain: 1 n (%)
  TEAE: Bacterial vaginosis: 0 n (%)
  TEAE: Balance disorder: 0 n (%)
  TEAE: Blood and lymphatic system disorders: 3 n (%)
  TEAE: Blood bicarbonate decreased: 0 n (%)
  TEAE: Blood bilirubin decreased: 0 n (%)
  TEAE: Blood bilirubin increased: 1 n (%)
  TEAE: Blood creatine phosphokinase increased: 2 n (%)
  TEAE: Blood creatinine increased: 1 n (%)
  TEAE: Blood glucose increased: 1 n (%)
  TEAE: Blood potassium increased: 0 n (%)
  TEAE: Blood pressure diastolic increased: 0 n (%)
  TEAE: Blood urine: 1 n (%)
  TEAE: Bradycardia: 0 n (%)
  TEAE: Bronchitis: 1 n (%)
  TEAE: Cardiac disorders: 1 n (%)
  TEAE: Constipation: 0 n (%)
  TEAE: Contusion: 0 n (%)
  TEAE: Cough: 0 n (%)
  TEAE: Decreased appetite: 0 n (%)
  TEAE: Dehydration: 0 n (%)
  TEAE: Diabetes mellitus: 1 n (%)
  TEAE: Diarrhoea: 5 n (%)
  TEAE: Dizziness: 0 n (%)
  TEAE: Dry mouth: 0 n (%)
  TEAE: Dry skin: 0 n (%)
  TEAE: Dysgeusia: 0 n (%)
  TEAE: Dyspepsia: 1 n (%)
  TEAE: Dyspnoea: 1 n (%)
  TEAE: Dysuria: 0 n (%)
  TEAE: Ear and labyrinth disorders: 0 n (%)
  TEAE: Ear discomfort: 0 n (%)
  TEAE: Ecchymosis: 0 n (%)
  TEAE: Electrocardiogram ST segment depression: 0 n (%)
  TEAE: Enteritis: 0 n (%)
  TEAE: Fatigue: 1 n (%)
  TEAE: Fungal infection: 0 n (%)
  TEAE: Gamma-glutamyltransferase increased: 0 n (%)
  TEAE: Gastrointestinal disorders: 10 n (%)
  TEAE: General disorders and administration site conditions: 2 n (%)
  TEAE: Glomerular filtration rate decreased: 4 n (%)
  TEAE: Gout: 1 n (%)
  TEAE: HIV antibody positive: 0 n (%)
  TEAE: HIV test positive: 0 n (%)
  TEAE: Haematuria: 1 n (%)
  TEAE: Haemoglobin decreased: 2 n (%)
  TEAE: Haemoglobin increased: 0 n (%)
  TEAE: Headache: 2 n (%)
  TEAE: Hepatic enzyme increased: 0 n (%)
  TEAE: Hepatitis C: 1 n (%)
  TEAE: Herpes simplex: 0 n (%)
  TEAE: Hyperglycaemia: 0 n (%)
  TEAE: Hyperhidrosis: 0 n (%)
  TEAE: Hyperkalaemia: 0 n (%)
  TEAE: Hyperproteinaemia: 1 n (%)
  TEAE: Hypertension: 0 n (%)
  TEAE: Hyperuricaemia: 0 n (%)
  TEAE: Hypokalaemia: 0 n (%)
  TEAE: Hyponatraemia: 1 n (%)
  TEAE: Hypophosphataemia: 2 n (%)
  TEAE: Hypothermia: 1 n (%)
  TEAE: Increased appetite: 0 n (%)
  TEAE: Infections and infestations: 5 n (%)
  TEAE: Injury, poisoning and procedural complications: 0 n (%)
  TEAE: Insomnia: 2 n (%)
  TEAE: Investigations: 8 n (%)
  TEAE: Irritability: 0 n (%)
  TEAE: Labyrinthitis: 0 n (%)
  TEAE: Leukopenia: 0 n (%)
  TEAE: Lymph node pain: 1 n (%)
  TEAE: Lymphadenopathy: 1 n (%)
  TEAE: Lymphopenia: 0 n (%)
  TEAE: Metabolism and nutrition disorders: 4 n (%)
  TEAE: Micturition urgency: 0 n (%)
  TEAE: Middle ear effusion: 0 n (%)
  TEAE: Migraine: 0 n (%)
  TEAE: Muscle spasms: 0 n (%)
  TEAE: Musculoskeletal and connective tissue disorders: 2 n (%)
  TEAE: Musculoskeletal chest pain: 1 n (%)
  TEAE: Myalgia: 0 n (%)
  TEAE: Myocarditis: 0 n (%)
  TEAE: Nasal congestion: 0 n (%)
  TEAE: Nausea: 3 n (%)
  TEAE: Nephropathy: 0 n (%)
  TEAE: Nervous system disorders: 4 n (%)
  TEAE: Neutropenia: 0 n (%)
  TEAE: Neutrophil count decreased: 1 n (%)
  TEAE: Oedema peripheral: 0 n (%)
  TEAE: Oral herpes: 0 n (%)
  TEAE: Otitis media: 0 n (%)
  TEAE: Paraesthesia: 1 n (%)
  TEAE: Percussion test abnormal: 1 n (%)
  TEAE: Petechiae: 0 n (%)
  TEAE: Pharyngitis streptococcal: 0 n (%)
  TEAE: Pneumonia chlamydial: 0 n (%)
  TEAE: Protein urine: 1 n (%)
  TEAE: Protein urine present: 0 n (%)
  TEAE: Proteinuria: 3 n (%)
  TEAE: Pruritus: 0 n (%)
  TEAE: Psychiatric disorders: 3 n (%)
  TEAE: Rash: 0 n (%)
  TEAE: Red blood cells urine: 1 n (%)
  TEAE: Renal and urinary disorders: 6 n (%)
  TEAE: Renal failure: 1 n (%)
  TEAE: Renal failure chronic: 1 n (%)
  TEAE: Renal impairment: 1 n (%)
  TEAE: Respiratory, thoracic and mediastinal disorders: 1 n (%)
  TEAE: Rhonchi: 1 n (%)
  TEAE: Sensation of foreign body: 0 n (%)
  TEAE: Sinus bradycardia: 0 n (%)
  TEAE: Sinus congestion: 0 n (%)
  TEAE: Sinus tachycardia: 1 n (%)
  TEAE: Sinusitis: 3 n (%)
  TEAE: Skin and subcutaneous tissue disorders: 0 n (%)
  TEAE: Sleep disorder: 0 n (%)
  TEAE: Sleep terror: 1 n (%)
  TEAE: Syncope: 1 n (%)
  TEAE: Tachycardia: 0 n (%)
  TEAE: Thrombocytopenia: 1 n (%)
  TEAE: Tinnitus: 0 n (%)
  TEAE: Tongue discolouration: 1 n (%)
  TEAE: Tremor: 0 n (%)
  TEAE: Upper respiratory tract infection: 0 n (%)
  TEAE: Urinary tract infection: 0 n (%)
  TEAE: Urine ketone body present: 1 n (%)
  TEAE: Vascular disorders: 0 n (%)
  TEAE: Vertigo: 0 n (%)
  TEAE: Vomiting: 1 n (%)
  TEAE: Wheezing: 1 n (%)
  TEAE: White blood cell count decreased: 0 n (%)
  Worst grade 1 or 2 TEAE: 30
  Worst grade 3 TEAE: 2
  Worst grade 3 or 4 TEAE: 2
  Worst grade 4 TEAE: 0
600 mg
  Any Serious TEAE: 1 (1.4%)
  Any Serious TEAE at least possibly related to study medication: 0
  Any Severe (Grade 3) TEAE: 5 (6.8%)
